Measured values taken from ChEMBL document CHEMBL5604063, “ASAP - DENV-2 NS2B-NS3 protease fluorescence dose response” (2024).
pIC50: −log10 of the molar value. Where “and” joins values, the source holds several entries; their conditions need not be identical. Identical values can stand only once.

Key:
Genome polyprotein [1] = target: T1, Genome polyprotein (dengue virus type 2, UniProt P29990); assay type: functional, Thailand/16681/1984
Genome polyprotein [2] = target: T1, Genome polyprotein; assay type: functional, Thailand/16681/1984; remark: listed apart in the source

T1 sequence (P29990 1346-1475 limits assumed): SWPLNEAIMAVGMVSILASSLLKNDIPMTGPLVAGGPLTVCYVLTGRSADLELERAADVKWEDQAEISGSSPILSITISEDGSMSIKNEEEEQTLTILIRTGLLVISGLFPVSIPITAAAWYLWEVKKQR
T1 sequence (P29990 1476-2093 limits assumed): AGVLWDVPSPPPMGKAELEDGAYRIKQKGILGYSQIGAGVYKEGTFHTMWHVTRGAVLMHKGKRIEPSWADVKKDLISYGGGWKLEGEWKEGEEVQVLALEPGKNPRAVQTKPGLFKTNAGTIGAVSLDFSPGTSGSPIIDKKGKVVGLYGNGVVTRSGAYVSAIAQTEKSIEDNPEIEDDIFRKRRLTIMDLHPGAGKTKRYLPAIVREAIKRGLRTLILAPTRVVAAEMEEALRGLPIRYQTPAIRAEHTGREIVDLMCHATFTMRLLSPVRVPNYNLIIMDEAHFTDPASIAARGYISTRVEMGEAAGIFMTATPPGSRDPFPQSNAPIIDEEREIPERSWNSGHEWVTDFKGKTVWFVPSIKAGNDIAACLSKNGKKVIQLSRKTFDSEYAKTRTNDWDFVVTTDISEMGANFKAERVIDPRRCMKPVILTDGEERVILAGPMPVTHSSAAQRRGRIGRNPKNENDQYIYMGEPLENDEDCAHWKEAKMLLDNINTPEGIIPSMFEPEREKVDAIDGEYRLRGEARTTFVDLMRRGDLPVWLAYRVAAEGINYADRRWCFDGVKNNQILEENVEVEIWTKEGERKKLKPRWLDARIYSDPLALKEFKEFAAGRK

Row | Compound | pIC50 (Genome polyprotein [1]) | pIC50 (Genome polyprotein [2])
1 | Cc1c(C(=O)Nc2cccc(CS(C)(=O)=O)c2)cc(C2CC2)n1C | < 4.00 | < 4.00
2 | O=C(NCC(F)F)[C@H](Nc1ncc2c(n1)CNC2)c1cc(Cl)cc(C2CC2)c1 | < 4.00 | < 4.00
3 | NC(=O)COc1ccc(Br)cc1[C@H](Nc1ccc2c(c1)CNC2)C(=O)NCC(F)F | < 4.00 | < 4.00
4 | Cn1nc(CNc2cc(-c3cccnc3)ccn2)cc1C1CC1 | < 4.00 | < 4.00
5 | CC(=O)N(c1ccc2c(c1)CNC2)[C@]1(c2cc(Cl)cc(C3CC3)c2)CN(C)C1=O | < 4.00 | < 4.00
6 | CO[C@H]1Cc2ccc(NC(=O)c3cc(C4CC4)n(C)c3C)cc2C1 | < 4.00 | < 4.00
7 | O=C1Cc2c(cccc2C(=O)Nc2ccc3[nH]nnc3c2)N1 | < 4.00 | < 4.00
8 | Cc1c(C(=O)Nc2ccc3c(c2)C[C@H](C(N)=O)O3)cc(C2CC2)n1C | < 4.00 | < 4.00
9 | N#CCOc1ccc(Br)cc1[C@H](Nc1ccc2c(c1)CNC2)C(=O)NCC(F)F | < 4.00 | < 4.00
10 | Cc1c(C(=O)Nc2ccc3c(c2)CCC(=O)N3CC2CCC2)cc(C2CC2)n1C | < 4.00 | < 4.00
11 | Clc1cc(CNc2ncc3c(n2)CNC3)c2cn[nH]c2c1 | < 4.00 | < 4.00
12 | Clc1cc(CNc2ccc3c(n2)CNC3)c2cn[nH]c2c1 | < 4.00 | < 4.00
13 | Cc1c(C(=O)Nc2cccc(-c3nc(C4CC4)no3)c2)cc(C2CC2)n1C | < 4.00 | < 4.00
14 | CC(=O)N1CC[C@]2(C1)C(=O)Nc1cccc(C(=O)Nc3ccc4c(c3)CNC4)c12 | < 4.00 | < 4.00
15 | N#Cc1cccc(-c2nc3c(C(=O)Nc4cccc(F)c4)cc(Cl)cc3[nH]2)c1 | < 4.00 | < 4.00
16 | CC(C)NC(=O)C[C@H]1NCc2cc(NC(=O)c3cc(Cl)cc4[nH]ncc34)ccc21 | < 4.00 | < 4.00
17 | O=C(NCC(F)F)[C@H](Nc1cc2c(cc1Br)CNC2)c1cc(Cl)cc(C2CC2)c1 | < 4.00 | 4.04 and 4.15
18 | O=C(NCC(F)F)[C@H](Nc1ccc2c(c1)CNC2)c1cc(Cl)cc2cccnc12 | 4.03 | 3.89 and 3.90
19 | CC1(C)NCc2cc(NC(=O)c3cc(F)cc4[nH]ncc34)ccc21 | < 4.00 | < 4.00
20 | Cc1c(C(=O)Nc2cccc(-c3ccoc3)c2)cc(C2CC2)n1C | < 4.00 | < 4.00
21 | CN(C)C(=O)C[C@H]1NCc2cc(NC(=O)c3cc(Cl)cc4[nH]ncc34)ccc21 | < 4.00 | < 4.00
22 | CS(=O)(=O)NC(=O)C[C@H]1NCc2cc(NC(=O)c3cc(Cl)cc4[nH]ncc34)ccc21 | < 3.53 | < 3.52
23 | CC(C)(C)NC(=O)C[C@H]1NCc2cc(NC(=O)c3cc(Cl)cc4[nH]ncc34)ccc21 | < 4.00 | < 4.00
24 | C[C@H]1NCc2ccc(NC(=O)c3cc(Cl)cc4[nH]ncc34)cc21 | < 4.00 | < 4.00
25 | CNC(=O)C[C@H]1NCc2cc(NC(=O)c3cc(Cl)cc4[nH]ncc34)ccc21 | < 4.00 | < 4.00
26 | O=C1Cc2c(cccc2C(=O)Nc2cc(Br)c3ncnn3c2)N1 | < 4.00 | < 4.00

Row | Compound | pIC50 (Genome polyprotein [1]) | pIC50 (Genome polyprotein [2])
27 | O=C(Nc1ccc2c(c1)CNC2)c1cc(Cl)cc2[nH]c(-c3cccc(F)c3)nc12 | 5.58 | 4.76 and 4.89
28 | C[C@]1(S(C)(=O)=O)C(=O)Nc2cc(F)cc(C(=O)Nc3ccc4c(c3)CNC4)c21 | < 4.00 | < 4.00
29 | Cc1c(C(=O)Nc2ccc3c(c2F)CCN(C)C3=O)cc(C2CC2)n1C | < 4.00 | < 4.00
30 | Cc1c(C(=O)Nc2cccc(Cn3cccn3)c2)cc(C2CC2)n1C | < 4.00 | < 4.00
31 | O=C1Cc2c(cccc2C(=O)Nc2ccc(O[C@H]3CCOC3)nc2)N1 | < 4.00 | < 4.00
32 | O=C1Cc2c(cccc2C(=O)Nc2cccc(-c3cn[nH]c3)c2)N1 | < 4.00 | < 4.00
33 | O=C(Nc1ccc2c(c1)CN[C@H]2C1CC1)c1cc(F)cc2[nH]ncc12 | 4.87 | 4.81 and 4.79
34 | Cc1c(C(=O)Nc2cc(C3CCOCC3)ccn2)cc(C2CC2)n1C | < 4.00 | < 4.00
35 | N#Cc1cccc(-c2nc3c(C(=O)Nc4ccc(F)cc4)cc(Cl)cc3[nH]2)c1 | < 4.00 | < 4.00
36 | Cc1c(C(=O)Nc2ccc3c(c2)C(=O)NC3)cc(C2CC2)n1C | < 4.00 | < 4.00
37 | COC(=O)[C@H]1NCc2cc(NC(=O)c3cc(F)cc4[nH]ncc34)ccc21 | < 4.00 | < 4.00
38 | N#Cc1cccc(-c2nc3c(C(=O)Nc4ccccn4)cc(Cl)cc3[nH]2)c1 | 4.54 | < 4.00
39 | COCCN(C)C(=O)[C@H](Nc1ccc2c(c1)CNC2)c1cc(Cl)cc(C2CC2)c1 | < 4.00 | < 4.00
40 | O=C1C[C@H](c2cccc(-c3cc(F)cc(C(=O)Nc4ccc5c(c4)CNC5)c3)c2)N1 | < 4.00 | < 4.00
41 | CC(=O)N(c1ccc2c(c1)CNC2)[C@]1(c2cc(Cl)cc(C3CC3)c2)CCCN(C)C1=O | < 4.00 | < 4.00
42 | O=C1Cc2c(cccc2C(=O)Nc2nc([C@H]3CCCOC3)cs2)N1 | < 4.00 | < 4.00
43 | Cc1c(C(=O)Nc2cccc(CN3CCCC3=O)c2)cc(C2CC2)n1C | < 4.00 | < 4.00
44 | CN(C)C(=O)C[C@H]1NCc2cc(NC(=O)c3cc(F)cc4[nH]ncc34)ccc21 | < 4.00 | 4.26 and 4.14
45 | C[C@H]1NCc2cc(NC(=O)c3cc(F)cc4[nH]ncc34)ccc21 | 4.16 | 4.21 and 4.17
46 | O=C(Nc1ccc2c(c1)CNC2)c1cc(Cl)cc2[nH]c(-c3ccccc3)nc12 | 5.48 | 4.29 and 4.67
47 | O=C1Cc2c(cccc2C(=O)Nc2ccc(N3CCOC3=O)nc2)N1 | < 4.00 | < 4.00
48 | Cc1cc(NC(=O)c2cc(C3CC3)n(C)c2C)ccc1OC1CCOCC1 | < 4.00 | < 4.00
49 | O=C(Nc1ccc2c(c1)CN[C@H]2C(=O)O)c1cc(F)cc2[nH]ncc12 | 4.15 | 4.10 and < 4.00
50 | Cc1c(C(=O)Nc2ccc3c(c2)CN(C)C3=O)cc(C2CC2)n1C | < 4.00 | < 4.00
51 | Cn1nc(CNc2cc([C@H]3CCOC3)ccn2)cc1C1CC1 | < 4.00 | < 4.00
52 | O=C([C@H](Nc1ccc2c(c1)CNC2)c1cc(Cl)cc(C2CC2)c1)N1CCOCC1 | < 4.00 | < 4.00
